Patent US10030016B2 (Sunesis Pharmaceuticals, Inc., priority 2009, dated 2018)
Like-named read-outs stand apart in the source and are kept apart here.

Tests used:
PDK1 = PDK1 (Homo sapiens (Human), UniProt O15530); test: PDK1 kinase assay (coupled PDK1/AKT/FAM-crosstide assay, IMAP fluorescence polarization); assay type: biochemical; conditions: inhibition of phospo-PDK1 in vitro
In short: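 PDK1 activity is measured indirectly through activation of a PIFtide-fused AKT2 construct that phosphorylates FAM-crosstide (100 nM). The reaction uses 0.75 nM PDK1, 40 μM ATP, 30 min, 25° C, with IMAP polarization detection.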

[1] = system: phospho-akt (Thr308) in PC-3 cells; test: Inhibition of phospho-akt (Thr308) in PC-3 cells, MSD phospho-akt 308 ELISA kit; assay type: cell-based; conditions: Homo sapiens, inhibition of P308 Akt in PC-3 cells, 2 hours, no serum, MSD, read-out: EC50
In short: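 Serum-free 2 h compound exposure of overnight-seeded PC-3 cells, threefold dilution series; lysates analysed on blocked MSD plates (3% BSA) for Thr308-phosphorylated Akt, normalised between DMSO and 5 μM wortmannin wells.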

PDK1, sequence (O15530 51-359): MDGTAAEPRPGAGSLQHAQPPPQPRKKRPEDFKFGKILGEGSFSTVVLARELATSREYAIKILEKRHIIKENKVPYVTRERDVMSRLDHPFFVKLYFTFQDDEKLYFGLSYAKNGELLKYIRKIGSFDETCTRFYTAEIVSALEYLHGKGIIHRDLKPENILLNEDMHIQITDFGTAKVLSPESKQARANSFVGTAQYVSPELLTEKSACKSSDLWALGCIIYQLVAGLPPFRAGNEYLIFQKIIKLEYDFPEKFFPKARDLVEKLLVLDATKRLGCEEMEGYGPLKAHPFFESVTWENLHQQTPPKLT

| SMILES | IC50 (PDK1) [µM] | EC50 [1] [µM] | EC50 ([1]; PC-3, 2 h) [µM] |
| --- | --- | --- | --- |
| C[C@H](NC(=O)c1cccnc1NCc1ccc(-c2ccc3ncc(N(C)C)nc3c2)s1)c1ccc(F)c(F)c1 [Example 4.27, (S)-N-(1-(3,4-difluoro-phenyl)ethyl)-2-(((5-(3-(dimethylamino)quinoxalin-6-yl)thiophen-2-yl)methyl)amino)nicotinamide] | 1 to 5 | > 10 | – |
| CNc1cnc2ccc(-c3ccc(CNc4ncccc4C(=O)N[C@@H](C)c4ccc(F)c(F)c4)s3)cc2n1 [Example 4.28, (S)-N-(1-(3,4-difluoro-phenyl)ethyl)-2-(((5-(3-(methyl)amino)quinoxalin-6-yl)thiophen-2-yl)methylamino) nicotinamide] | 0.1 to 1 | 1 to 10 | – |
| C[C@H](NC(=O)c1cccnc1NCc1ccc(-c2ccc3ncc(-n4ccnc4)nc3c2)s1)c1ccc(F)c(F)c1 [Example 4.29, (S)-2-(((5-(3-(1H-imidazol-1-yl)quinoxalin-6-yl)thiophen-2-yl)methyl)amino)-N-(1-(3,4-difluorophenyl)ethyl) nicotinamide] | > 5 | > 10 | – |
| C[C@H](NC(=O)c1cccnc1NCc1ccc(-c2ccc3ncc(N)nc3c2)s1)c1ccc(F)c(F)c1 [Example 4.30, (S)-2-(((5-(3-aminoquinoxalin-6-yl)thiophen-2-yl)methyl)amino)-N-(1-(3,4-difluorophenyl)ethyl) nicotinamide] | 0.1 to 1 | – | 1 to 10 |
| C[C@H](NC(=O)c1cccnc1NCc1ccc(-c2ccc3nccnc3c2)s1)c1ccc(F)c(F)c1 [Example 4.31] | > 5 | > 10 | – |
| C[C@H](NC(=O)c1cccnc1NCc1ccc(-c2ccc3ncc(-n4ccnc4N)nc3c2)s1)c1ccc(F)c(F)c1 [Example 4.32, (S)-2-(((5-(3-(2-amino-1H-imidazol-1-yl)quinoxalin-6-yl)thiophen-2-yl)methyl)amino)-N-(1-(3,4-difluorophenyl)ethyl) nicotinamide] | 0.1 to 1 | – | > 10 |
| COCCNc1ncnc2ccc(-c3ccc(CNc4ncccc4C(=O)N[C@@H](C)c4ccc(F)c(F)c4)s3)cc12 [Example 4.33] | < 0.1 | 1 to 10 | – |
| C[C@H](NC(=O)c1cccnc1NCc1ccc(-c2ccc3ncnc(N4CC(O)C4)c3c2)s1)c1ccc(F)c(F)c1 [Example 4.34] | < 0.1 | 1 to 10 | – |

Second part, the compound after the results:

| IC50 (PDK1) [µM] | EC50 [1] [µM] | EC50 ([1]; PC-3, 2 h) [µM] | SMILES |
| --- | --- | --- | --- |
| < 0.1 | 1 to 10 | – | C[C@H](NC(=O)c1cccnc1NCc1ccc(-c2ccc3ncnc(NC4COC4)c3c2)s1)c1ccc(F)c(F)c1 [Example 4.35] |
| < 0.1 | 1 to 10 | – | C[C@H](NC(=O)c1cccnc1NCc1ccc(-c2ccc3ncnc(NC4CNC4)c3c2)s1)c1ccc(F)c(F)c1 [Example 4.36, 2-({5-[4-(Azetidin-3-ylamino)-quinazolin-6-yl]-thiophen-2-ylmethyl}-amino)-N-[(S)-1-(3,4-difluoro-phenyl)-ethyl]-nicotinamide] |
| 0.1 to 1 | 1 to 10 | – | C[C@H](NC(=O)c1cccnc1NCc1ccc(-c2ccc3ncnc(N4CC(C)(O)C4)c3c2)s1)c1ccc(F)c(F)c1 [Example 4.37] |
| < 0.1 | 1 to 10 | – | C[C@H](NC(=O)c1cccnc1NCc1ccc(-c2ccc3ncnc(N4CC(CO)C4)c3c2)s1)c1ccc(F)c(F)c1 [Example 4.38] |
| 0.1 to 1 | > 10 | – | CC(C)Oc1cc(CNc2ncccc2C(=O)NCc2ccc(F)c(F)c2)cc(-c2ccc3ncncc3c2)c1 [Example 5.3, N-(3,4-difluorobenzyl)-2-(3-isopropoxy-5-(quinazolin-6-yl)benzylamino) nicotinamide] |
| 1 to 5 | – | > 10 | CC(C)Oc1cc(CNc2ncccc2C(=O)NCc2ccc(F)c(F)c2)cc(-c2ccc3ncccc3c2)c1 [Example 5.4, N-(3,4-difluorobenzyl)-2-(3-isopropoxy-5-(quinolin-6-yl)benzylamino) nicotinamide] |
